US4594241A, “Anti-leishmanial pharmaceutical formulations” (Burroughs Wellcome Co., priority 1982, dated 1986)

Columns and labels:
Leishmania donovani [1] = test: Animal test: Balb/c mice infected with Leishmania donovani, intravenous treatment once daily for 5 days, liver parasite count; format: in vivo, Leishmania donovani in Balb/c mice; details: for ED50 (P95 limits): i.v. daily for 5 days, 10080 min
Excerpt: (§1) Inbred male mice, strain Balb/c (Bantin & Kingman), were infected with Leishmania donovani by intravenous inoculation of 10^7 amastigotes from the spleen of an infected hamster. One week after inoculation, the mice were divided into groups of 9-10 animals and dosed intravenously into the tail vein with sodium stibogluconate, either as free drug or entrapped in liposomes similar to those described in Example 1. The dose was given once daily for 5 days. Empty liposomes were inoculated into one group as controls. Seven days after the first dose of drug, the mice were killed, the livers excised and weighed, and impression smears prepared from a cut surface of the liver. The impression smears were stained with Giemsa, and number of amastigotes counted microscopically per 500 liver cell nuclei, and the total number of parasites calculated by the method of Stauber et al. J. Protozoology, 5, 269, (1958).
(§2) The doses of sodium stibogluconate were calculated in terms of mg antimony/kg for both free and entrapped drug. The liposome dilutions were freshly prepared for each day of drug treatment.
The results of treatment are expressed as the mean of the total numbers of amastigotes in the liver of each mouse.

Leishmania donovani [2] = test: Animal test: mice infected with Leishmania donovani, single intravenous injection (Experiment No. 82), liver parasite count; format: in vivo, Leishmania donovani in Balb/c mice
Excerpt: as §1, with “The dose was given once daily for 5 days.” left out
as §2
The results of treatment are expressed as the mean of the total numbers of amastigotes in the liver of each mouse. The following results were obtained:
Further animal tests on mice, as described in Example 2, were carried out using a liposomal formulation corresponding to that described as Preparation No. 8 in Example 2. […]

[3] = expt. 44, 15 mg Sb/kg × 5, i.v.
[4] = expt. 56, 0.5 mg Sb/kg × 5, i.v.
[5] = expt. 56, 1.0 mg Sb/kg × 5, i.v.
[6] = expt. 56, 2.0 mg Sb/kg × 5, i.v.
[7] = expt. 56, 4.0 mg Sb/kg × 5, i.v.

With sodium stibogluconate the “Potency relates to free drug (P95 limits)” value (Leishmania donovani [1]; Expt. 44) was 1, the “ED50 (P95 limits)” value (Leishmania donovani [1]; Expt. 44) was 2.4 (3.2-1.8) mg Sb/kg × 5 and the “Potency relates to free drug (P95 limits)” value (Leishmania donovani [1]; Expt. 56) was 1. For the same substance, the “ED50 (P95 limits)” value (Leishmania donovani [1]; Expt. 56) was 1.14 (1.35-0.95) mg Sb/kg × 5, the “% inhibition” value (Leishmania donovani [1]; expt. 44, 5 mg Sb/kg × 5, i.v.) was 72% and the “Mean no. of parasites/mouse liver ± SE” value (Leishmania donovani [1]; expt. 44, 5 mg Sb/kg × 5, i.v.) was 1.54 ± 0.21 × 10^8. For the same substance, the “% inhibition” value (Leishmania donovani [1]; [3]) was 93%, the “Mean no. of parasites/mouse liver ± SE” value (Leishmania donovani [1]; [3]) was 0.38 ± 0.08 × 10^8 and the “% inhibition” value (Leishmania donovani [1]; [4]) was 23%. For the same substance, the “Mean no. of parasites/mouse liver ± SE” value (Leishmania donovani [1]; [4]) was 3.80 ± 0.37 × 10^8, the “% inhibition” value (Leishmania donovani [1]; [5]) was 26% and the “Mean no. of parasites/mouse liver ± SE” value (Leishmania donovani [1]; [5]) was 3.65 ± 0.29 × 10^8. The “% inhibition” value (Leishmania donovani [1]; [6]) was 69%, the “Mean no. of parasites/mouse liver ± SE” value (Leishmania donovani [1]; [6]) was 1.55 ± 0.36 × 10^8 and the “% inhibition” value (Leishmania donovani [1]; [7]) was 93%. The “Mean no. of parasites/mouse liver ± SE” value (Leishmania donovani [1]; [7]) was 0.35 ± 0.11 × 10^8 and the “ED50 (dosage rate necessary to reduce the parasite count to 50% of the untreated group)” value (Leishmania donovani [2]) was 61.2 mg antimony per kilogram body weight.
